The target of test [1] is pa-HO (Pseudomonas aeruginosa, UniProt O69002). It counts as binding. Conditions: for NMR sat. transfer: Table 2, paHO; for NMR pa-HO: Table 3A. On NMR pa-HO: key: Shows binding by NMR method = +; Ambig = ambiguous.
The subject of test [2] is P. aeruginosa. The experiment in a line: MIC50 for P. aeruginosa. It is filed as cell-based, Pseudomonas aeruginosa.
[3] abbreviates: Pseudomonas aeruginosa, Table 3B, P. aeruginosa, read-out: MIC 50.

Where two headings read alike, the source gives them in different places.

Sequence of pa-HO (O69002 1-198): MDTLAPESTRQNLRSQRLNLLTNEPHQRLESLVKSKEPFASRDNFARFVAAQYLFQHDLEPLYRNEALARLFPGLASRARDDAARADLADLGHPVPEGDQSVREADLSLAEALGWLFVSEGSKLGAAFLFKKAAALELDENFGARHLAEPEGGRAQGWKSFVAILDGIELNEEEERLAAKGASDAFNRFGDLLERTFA

For the molecule `C(=N\Nc1nc(-c2cccnc2)cs1)/c1cccnc1` [Compound 3], the NMR sat. transfer result in test [1] is recorded as “Alias: CB-28 fluorescence binding: nd minimum inhibition conc: nd NMR sat. transfer: does not bind paHO”.

`O=C(O)Cn1c(=O)c2cc3c(=O)n(CC(=O)O)c(=O)c3cc2c1=O` [Compound 4]: the NMR sat. transfer result in test [1] is listed as “Alias: CB-2 fluorescence binding: nd minimum binding conc: nd NMR sat. transfer: do not bind paHO”.

Consider `O=C(O)CN1C(=O)c2ccccc2C1=O` [Compound 5], for which the NMR sat. transfer result in test [1] is listed as “Alias: CB-4 fluorescence binding: nd minimum inhibition conc: nd NMR sat. transfer: binds paHO”.

Take `Cc1ccccc1C(=O)Nc1cc(C(=O)O)cc(C(=O)O)c1` [Compound 6]: the NMR sat. transfer result in test [1] is on record as “Alias: CB-17 fluorescence binding: nd minimum inhibition conc: nd NMR sat. transfer: binds paHO”.

As for `O=C(CNC(=O)c1cccnc1)N/N=C/c1ccccn1` [Compound 9], the NMR sat. transfer result in test [1] is “Alias: CD-21 fluorescence binding: nd minimum inhibition conc: nd NMR sat. transfer: do not bind paHO”.

In the case of `O=C(CNc1ccc2ccccc2c1)N/N=C/c1ccccn1` [Compound 10], the NMR sat. transfer entry in test [1] is “Alias: CD-8 fluorescence binding: nd minimum inhibition conc: nd NMR sat. transfer: do not bind paHO”.

On to `O=C(N/N=C/c1ccc(O)cc1O)c1cccnc1` [Compound 11], for which the NMR sat. transfer result in test [1] is reported as “Alias: CD-20 fluorescence binding: nd minimum inhibition conc: nd NMR sat. transfer: do not bind paHO”.

With `NCCNS(=O)(=O)c1cccc(C(=O)O)c1` [Compound 18], the NMR sat. transfer entry in test [1] was “Alias: Spec-7 fluorescence binding: nd minimum inhibition conc: nd NMR sat. transfer: do not bind paHO”.

Regarding `Cc1n[nH]c(Nc2ccccc2F)c1[N+](=O)[O-]` [Compound 20], the NMR sat. transfer result in test [1] is on record as “Alias: CD-6 fluorescence binding: nd minimum inhibition conc: nd NMR sat. transfer: do not bind paHO”.

As to `NC(=O)NC(=O)C[n+]1ccc(C(N)=O)cc1` [Compound 34], in test [1], the NMR sat. transfer result is given as “Alias: CD-3 fluorescence binding: nd minimum inhibition conc: nd NMR sat. transfer: do not bind paHO”.

On to `O=C(O)CSc1ncnc2ccccc12` [Compound 36], for which, in test [1], the NMR sat. transfer result was “binds paHO” and the “NMR pa-HO” value is “+”. For the same molecule, in test [2] (Table 2), the minimum inhibition conc result is “no antibacterial activity”. Further, the “MIC 50 (ug/ml)” value in test [2] (Table 3A) is recorded as “no antibact activity”.

For the molecule `Cc1ccc(NC(=O)c2cnccn2)cc1Cl` [Compound 38], in test [1], the NMR sat. transfer entry was “Alias: CB-24 fluorescence binding: nd minimum inhibition conc: nd NMR sat. transfer: does not bind paHO”.

`Cc1cccc(NC(=O)c2ccc(C(=O)Nc3cccc(C)n3)cc2)n1` [Compound 39]: the NMR sat. transfer entry in test [1] is given as “Alias: CB-20 fluorescence binding: nd minimum inhibition conc: nd NMR sat. transfer: tested, ambiguous”.

For the molecule `O=C(NCc1ccco1)c1cc(C(=O)NCc2ccco2)cc([N+](=O)[O-])c1` [Compound 40], the NMR sat. transfer result in test [1] was “Alias: CB-25 fluorescence binding: nd minimum inhibition conc: nd NMR sat. transfer: does not bind paHO”.

With `O=C(Oc1ccc(OC(=O)c2ccco2)cc1)c1ccco1` [Compound 47], the NMR sat. transfer result in test [1] is recorded as “Alias: CB-3 fluorescence binding: nd minimum inhibition conc: nd NMR sat. transfer: do not bind paHO”.

Turning to `O=C(O)CCn1ncc2ccccc21` [Compound 51], in test [1], the NMR sat. transfer entry was “Alias: CD-5 fluorescence binding: nd minimum inhibition conc: nd NMR sat. transfer: do not bind paHO”.

For `O=C(O)c1c[nH]c2c(ccc3ccccc32)c1=O` [Compound 52], the NMR sat. transfer entry in test [1] is given as “Alias: Spec-2 fluorescence binding: nd minimum inhibition conc: nd NMR sat. transfer: do not bind paHO”.

On to `N#CCc1ccc(NC2=NS(=O)(=O)c3ccccc32)cc1` [Compound 56], for which the NMR sat. transfer result in test [1] is reported as “Alias: CD-16 fluorescence binding: nd minimum inhibition conc: nd NMR sat. transfer: do not bind paHO”.

`O=C(O)c1ccc2c(c1)-c1nc3ccccc3n1C2=O` [Compound 57]: the NMR sat. transfer result in test [1] is “Alias: CD-4 fluorescence binding: nd minimum inhibition conc: nd NMR sat. transfer: do not bind paHO”.

`CC(=O)Oc1ccc(-c2cccc(C(=O)O)c2)cc1` [Compound 61]: in test [1], the NMR sat. transfer result is on record as “yes, bind to paHO” and the “NMR pa-HO” value is reported as “+”. Besides, the minimum inhibition conc entry in test [2] (Table 2) is given as “no antibacterial activity”. Moreover, the “MIC 50 (ug/ml)” value in test [2] (Table 3A) is “no antibact activity”.

Regarding `O=C(O)c1cc(-c2cccnc2)nc2ccccc12` [Compound 62], in test [1], the NMR sat. transfer entry is on record as “Alias: CB-23 fluorescence binding: nd minimum inhibition conc: nd NMR sat. transfer: does not bind paHO”.

As for `c1cncc(CNCc2cccnc2)c1` [Compound 64], the NMR sat. transfer entry in test [1] is given as “Alias: Spec-12 fluorescence binding: nd minimum inhibition conc: nd NMR sat. transfer: do not bind paHO”.

In the case of `Cc1nc(NCCCC(=O)O)c2ccccc2n1` [Compound 71], the NMR sat. transfer entry in test [1] is recorded as “Alias: Spec-6 fluorescence binding: nd minimum inhibition conc: nd NMR sat. transfer: do not bind paHO”.

Turning to `COc1ccc(C(=O)COC(=O)/C=C/c2ccccc2)cc1` [Compound 74], in test [1], the NMR sat. transfer result is given as “Alias: CB-1 fluorescence binding: nd minimum inhibition conc: nd NMR sat. transfer: do not bind paHO”.

On to `O=C(O)c1ccc2c(c1)C(=O)N(c1ccc(Cl)cc1)C2=O` [Compound 77], for which the NMR sat. transfer result in test [1] is listed as “Alias: CB-16 fluorescence binding: nd minimum inhibition conc: nd NMR sat. transfer: binds paHO”.

For the molecule `Cc1ccc(CN2CCN(Cc3ccccc3)CC2)cc1` [Compound 80], in test [1], the NMR sat. transfer result is recorded as “Alias: CB-10 fluorescence binding: nd minimum inhibition conc: nd NMR sat. transfer: binds paHO”.

For the molecule `O=[N+]([O-])c1cccc(CN2CCNCC2)c1` [Compound 83], in test [1], the NMR sat. transfer entry is “yes, bind paHO” and the “NMR pa-HO” value is reported as “+”. Besides, in test [2] (Table 2), the minimum inhibition conc result was “no antibacterial activity”. In test [2] (Table 3A), the “MIC 50 (ug/ml)” value is “no antibact activity”.

Turning to `Cc1cc(-c2ccc(F)cc2)nc2cc(C(=O)O)nn12` [Compound 85], in test [1], the NMR sat. transfer entry is on record as “yes, bind paHO” and the “NMR pa-HO” value was “+”. Besides, the MIC50 in test [2] (setting [3]) is > 1000 mg/L. Besides, in test [2] (Table 2), the minimum inhibition conc result was “no antibacterial activity”. The “MIC 50 (ug/ml)” value in test [2] (Table 3A) is “no antibact activity”.

Turning to `CCN1CCN(CCN)CC1` [Compound 90], the NMR sat. transfer entry in test [1] is “Alias: CD-19 fluorescence binding: nd minimum inhibition conc: nd NMR sat. transfer: do not bind paHO”.

As for `NC(=O)c1ccc[n+](-c2ccccc2)c1` [Compound 91], the NMR sat. transfer entry in test [1] was “Alias: Spec-10 fluorescence binding: nd minimum inhibition conc: nd NMR sat. transfer: do not bind paHO”.

`CN(C)CCN(C)Cc1cccc2ccccc12` [Compound 98]: the NMR sat. transfer result in test [1] is given as “Alias: CB-12 fluorescence binding: nd minimum inhibition conc: nd NMR sat. transfer: binds paHO”.

`CC(N)c1ccc2ccccc2c1` (centres unmarked) [Compound 103]: in test [1], the NMR sat. transfer entry is reported as “yes, bind paHO”. In addition, the “NMR pa-HO” value in test [1] is “+”. Further, the MIC in test [2] (Pseudomonas aeruginosa, Table 2, read-out: minimum inhibition conc) is > 250 mg/L. Further, the MIC50 is > 250 mg/L in test [2] (Pseudomonas aeruginosa, Table 3A, read-out: MIC 50) and >250 mg/L in test [2] (Table 3B, P. aeruginosa).

Consider `COc1cc(/C=N/Cc2ccco2)ccc1O` [Compound 104], for which the NMR sat. transfer entry in test [1] is given as “Alias: CD-13 fluorescence binding: nd minimum inhibition conc: nd NMR sat. transfer: do not bind paHO”.

As for `Nc1nonc1-c1noc(-c2cccnc2O)n1` [Compound 113], the NMR sat. transfer result in test [1] is “Alias: CD-17 fluorescence binding: nd minimum inhibition conc: nd NMR sat. transfer: do not bind paHO”.

Take `Cc1cc(C(=O)O)nn1-c1ccccc1` [Compound 115]: in test [1], the NMR sat. transfer result was “yes, bind paHO” and the “NMR pa-HO” value is reported as “+”. Besides, in test [2] (setting [3]), the MIC50 is > 1000 mg/L. Further, the minimum inhibition conc result in test [2] (Table 2) is on record as “no antibacterial activity”. Further, the “MIC 50 (ug/ml)” value in test [2] (Table 3A) is “no antibact activity”.

For the molecule `N#Cc1ncc(-c2ccccc2)nc1C#N` [Compound 120], the NMR sat. transfer entry in test [1] is recorded as “Alias: Spec-15 fluorescence binding: nd minimum inhibition conc: nd NMR sat. transfer: do not bind paHO”.

For `C=CCNC(=O)C(=O)Nc1ccc(C(C)C)cc1` [Compound 124], in test [1], the NMR sat. transfer result was “Alias: CB-30 fluorescence binding: nd minimum inhibition conc: nd NMR sat. transfer: tested, ambiguous”.

For the molecule `C=CCn1c(S)cc2sc3c(c2c1=O)CCN(C)C3` [Compound 128], in test [1], the NMR sat. transfer result was “Alias: Spec-4 fluorescence binding: nd minimum inhibition conc: nd NMR sat. transfer: do not bind paHO”.

`CC(C)c1ccc(CN2CCN(CCO)CC2)cc1` [Compound 132]: the NMR sat. transfer result in test [1] was “Alias: CB-13 fluorescence binding: nd minimum inhibition conc: nd NMR sat. transfer: tested, ambiguous”.

Regarding `CCc1ccc2[nH]c3nc(N/N=C/c4ccc(O)cc4)nnc3c2c1` [Compound 139], the NMR sat. transfer result in test [1] is recorded as “Alias: CB-27 fluorescence binding: nd minimum inhibition conc: nd NMR sat. transfer: does not bind paHO”.

In the case of `Oc1ccccc1/C=N/Nc1nnn[nH]1` [Compound 140], the NMR sat. transfer result in test [1] is “Alias: CB-11 fluorescence binding: nd minimum inhibition conc: nd NMR sat. transfer: binds paHO”.

As to `Nc1nnnn1/N=C/c1cc2c(cc1[N+](=O)[O-])OCO2` [Compound 143], the NMR sat. transfer entry in test [1] was “Alias: CB-19 fluorescence binding: nd minimum inhibition conc: nd NMR sat. transfer: binds paHO”.

Regarding `O=CNc1nonc1NNc1ccccc1` [Compound 144], the NMR sat. transfer result in test [1] is reported as “Alias: CB-15 fluorescence binding: nd minimum inhibition conc: nd NMR sat. transfer: tested, ambiguous”.

On to `CN1CCN(CCCn2cnc3c2c(=O)n(C)c(=O)n3C)CC1` [Compound 145], for which, in test [1], the NMR sat. transfer entry was “Alias: CB-14 fluorescence binding: nd minimum inhibition conc: nd NMR sat. transfer: tested, ambiguous”.

Take `O=C1OC(c2ccccc2)=N/C1=C\Nc1cccc([N+](=O)[O-])c1` [Compound 147]: the NMR sat. transfer result in test [1] is “Alias: CB-26 fluorescence binding: nd minimum inhibition conc: nd NMR sat. transfer: does not bind paHO”.

With `O=C(O)c1ccc2c(c1)C(=O)N(CCO)C2=O` [Compound 151], in test [1], the NMR sat. transfer entry is listed as “Alias: CB-8 fluorescence binding: nd minimum inhibition conc: nd NMR sat. transfer: binds paHO”.

For `Cn1c(=N)n(CC(=O)O)c2ccccc21` [Compound 153], the NMR sat. transfer entry in test [1] was “Alias: CD-9 fluorescence binding: nd minimum inhibition conc: nd NMR sat. transfer: do not bind paHO”.

(Values after US20100081661A1, “HEME OXYGENASE INHIBITORS, SCREENING METHODS FOR HEME OXYGENASE INHIBITORS AND METHODS OF USE OF HEME OXYGENASE INHIBITORS FOR ANTIMICROBIAL THERAPY” (UNIVERSITY OF MARYLAND, BALTIMORE, priority 2006, published 2010).)
